Measured values published in patent US10919885B2, “Compounds and uses thereof” (Yumanity Therapeutics, Inc., priority 2018, dated 2021).

target: human SCD1 (Homo sapiens (Human), UniProt O00767); test: Yeast growth assay, strain expressing human SCD1 as the sole desaturase (reduced growth as surrogate for SCD inhibition); type: cell-based; conditions: yeast with OLE1 deleted expressing human SCD1 from a plasmid; growth read as OD600 after 40 h at 30° C.; top drug concentration 33.3 μM
Procedure: Strains expressing SCD1 or SCD5 as the sole desaturase, the human SCD1 and SCD5 genes were used to evaluate inhibition of SCD1/SCD5 using reduced growth as a surrogate for SCD inhibition. These yeast strains express human SCD1 or SCD5 from a plasmid harbored in a strain in which the yeast OLE1 gene is deleted.
All compound profiling experiments were performed using the same basic protocol. Yeast were cultured using standard techniques in complete synthetic media lacking uracil and containing yeast nitrogen base supplemented with 2% (w/v) glucose (SD-Ura) Starter cultures were inoculated in 3 mL SD-Ura media containing 0.01% tween and 0.2 mM palmitoleic and oleic acid. Cultures were incubated overnight in a 30° C. shaker incubator (225 rpm). Saturated morning cultures were centrifuged, washed in SD-Ura media lacking TWEEN-20 and fatty acids, and then diluted 1:20 in fresh SD-Ura media also lacking TWEEN-20 and fatty acids.
Compound administration was performed in two separate steps. First, 15 μL of SD-Ura was dispensed into clear 384-well assay plates using a MULTIDROP™ Combi reagent dispenser. […] The cultures described above were centrifuged and washed with media lacking TWEEN-20 or oleic and palmitoleic acids.
After yeast delivery, assay plates were incubated under humidified conditions at 30° C. for 40 h. Yeast growth was monitored by reading the OD600 of each well using a microplate reader (Perkin Elmer EnVision™).

Chain of human SCD1 (O00767 whole entry): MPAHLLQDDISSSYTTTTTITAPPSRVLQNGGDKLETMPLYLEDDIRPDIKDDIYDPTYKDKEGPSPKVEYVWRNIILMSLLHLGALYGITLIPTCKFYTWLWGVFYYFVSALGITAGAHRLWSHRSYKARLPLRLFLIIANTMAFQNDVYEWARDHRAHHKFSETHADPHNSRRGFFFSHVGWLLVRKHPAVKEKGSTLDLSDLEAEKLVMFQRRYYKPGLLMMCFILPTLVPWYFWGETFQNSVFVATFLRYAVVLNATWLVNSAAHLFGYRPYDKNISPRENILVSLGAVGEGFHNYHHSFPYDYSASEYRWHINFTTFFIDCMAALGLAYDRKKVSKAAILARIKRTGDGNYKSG

| Compound | IC50 |
| --- | --- |
| 5-acetyl-N-(1-(3-fluorobenzyl)-1H-pyrazol-4-yl)isoxazole-3-carboxamide [Compound 91] | 439 nM |
| O=C(Nc1cnn(Cc2ccccc2)c1)c1cc(-c2ccco2)no1 [Compound 11, N-(1-benzylpyrazol-4-yl)-3-(2-furyl)isoxazole-5-carboxamide] | 50 nM |
| O=C(Nc1cnn(Cc2ccccc2C(F)(F)F)c1)c1cc(-c2ccco2)on1 [Compound 14, 5-(furan-2-yl)-N-(1-(2-(trifluoromethyl)benzyl)-1H-pyrazol-4-yl)isoxazole-3-carboxamide] | > 45000 nM |
| O=C(Nc1cnn(Cc2ccc(F)cc2)c1)c1cc(-c2ccco2)on1 [Compound 18, N-[1-[(4-fluorophenyl)methyl]pyrazol-4-yl]-5-(2-furyl)isoxazole-3-carboxamide] | > 45000 nM |
| O=C(Nc1cnn(Cc2cccc(C(F)(F)F)c2)c1)c1cc(-c2ccco2)on1 [Compound 20, 5-(2-furyl)-N-[1-[[3-(trifluoromethyl)phenyl]methyl]pyrazol-4-yl]isoxazole-3-carboxamide] | > 45000 nM |
| O=C(Nc1cnn(Cc2cccc(Cl)c2)c1)c1cc(-c2ccco2)on1 [Compound 22, N-[1-[(3-chlorophenyl)methyl]pyrazol-4-yl]-5-(2-furyl)isoxazole-3-carboxamide] | > 45000 nM |
| O=C(Nc1cnn(Cc2ccccc2Cl)c1)c1cc(-c2ccco2)on1 [Compound 23, N-[1-[(2-chlorophenyl)methyl]pyrazol-4-yl]-5-(2-furyl)isoxazole-3-carboxamide] | > 45000 nM |
| O=C(Nc1cnn(CC2CCCCC2)c1)c1cc(-c2ccco2)on1 [Compound 26, N-[1-(cyclohexylmethyl)pyrazol-4-yl]-5-(2-furyl)isoxazole-3-carboxamide] | > 45000 nM |
| O=C(Nc1cnn(Cc2cc(F)ccc2Cl)c1)c1cc(-c2ccco2)on1 [Compound 28, N-(1-(2-chloro-5-fluorobenzyl)-1H-pyrazol-4-yl)-5-(furan-2-yl)isoxazole-3-carboxamide] | > 45000 nM |
| O=C(Nc1cnn(Cc2cc(F)ccc2C(F)(F)F)c1)c1cc(-c2ccco2)on1 [Compound 36, N-[1-[[5-fluoro-2-(trifluoromethyl)phenyl]methyl]pyrazol-4-yl]-5-(2-furyl)isoxazole-3-carboxamide] | > 45000 nM |
| O=C(Nc1cnn(Cc2ccccc2)c1)c1cc(-c2ccccc2F)on1 [Compound 38, N-(1-benzylpyrazol-4-yl)-5-(2-fluorophenyl)isoxazole-3-carboxamide] | > 45000 nM |
| O=C(Nc1cc(-c2ccco2)on1)c1cnn(Cc2ccccc2)c1 [Compound 49, 1-benzyl-N-[5-(2-furyl)isoxazol-3-yl]pyrazole-4-carboxamide] | > 45000 nM |
| O=C(Nc1cnn(Cc2cccc(F)c2)c1)c1cc(-c2cnco2)on1 [Compound 86, N-(1-(3-fluorobenzyl)-1H-pyrazol-4-yl)-5-(oxazol-5-yl)isoxazole-3-carboxamide] | 188 nM |
| COC1(c2cc(C(=O)Nc3cnn(Cc4cccc(F)c4)c3)no2)CCC1 [Compound 115, N-(1-(3-fluorobenzyl)-1H-pyrazol-4-yl)-5-(1-methoxycyclobutyl)isoxazole-3-carboxamide] | 340 nM |
| COc1ccccc1Cn1cc(NC(=O)c2cc(-c3ccccc3)on2)cn1 [Compound 125, N-(1-(2-methoxybenzyl)-1H-pyrazol-4-yl)-5-phenylisoxazole-3-carboxamide] | > 45000 nM |
| O=C(Nc1cnn(Cc2ccccc2)c1)c1cc(-c2cnco2)on1 [Compound 149, N-(1-benzyl-1H-pyrazol-4-yl)-5-(oxazol-5-yl)isoxazole-3-carboxamide] | > 45000 nM |
| O=C(Nc1cnn(Cc2cnccc2C(F)(F)F)c1)c1cc(-c2ccccc2)on1 [Compound 160, 5-phenyl-N-(1-((4-(trifluoromethyl)pyridin-3-yl)methyl)-1H-pyrazol-4-yl)isoxazole-3-carboxamide] | > 45000 nM |
| Cc1ncc(-c2cc(C(=O)Nc3cnn(Cc4ccccc4)c3)no2)o1 [Compound 164, N-(1-benzyl-1H-pyrazol-4-yl)-5-(2-methyloxazol-5-yl)isoxazole-3-carboxamide] | 11000 nM |
| O=C(Nc1cnn(Cc2ccccc2)c1)c1cc(-c2nncs2)on1 [Compound 170, N-(1-benzyl-1H-pyrazol-4-yl)-5-(1,3,4-thiadiazol-2-yl)isoxazole-3-carboxamide] | 131 nM |

Other lines, results leading:

| IC50 | Compound |
| --- | --- |
| 90 nM | O=C(Nc1cnn(Cc2ccccc2)c1)c1cc(-c2ccco2)on1 [Compound 4, N-(1-benzyl-1H-pyrazol-4-yl)-5-(furan-2-yl)isoxazole-3-carboxamide] |
| > 45000 nM | Cc1nn(Cc2ccccc2)c(C)c1NC(=O)c1cc(-c2ccc3c(c2)OCO3)on1 [Compound 5] |
| 700 nM | O=C(Nc1cnn(Cc2ccccc2)c1)c1cc(-c2ccccn2)on1 [Compound 8, N-(1-benzylpyrazol-4-yl)-5-(2-pyridyl)isoxazole-3-carboxamide] |
| 360 nM | O=C(Nc1cnn(Cc2ccccc2F)c1)c1cc(-c2ccco2)on1 [Compound 19, N-[1-[(2-fluorophenyl)methyl]pyrazol-4-yl]-5-(2-furyl)isoxazole-3-carboxamide] |
| 10 nM | O=C(Nc1cnn(Cc2cccc(F)c2)c1)c1cc(-c2ccco2)on1 [Compound 30, N-[1-[(3-fluorophenyl)methyl]pyrazol-4-yl]-5-(2-furyl)isoxazole-3-carboxamide] |
| 260 nM | O=C(Nc1cnn(Cc2ccccc2)c1)c1cc(-c2cncs2)on1 [Compound 37, N-(1-benzylpyrazol-4-yl)-5-thiazol-5-yl-isoxazole-3-carboxamide] |
| 20 nM | C=C(C)c1cc(C(=O)Nc2cnn(Cc3cccc(F)c3)c2)no1 [Compound 58, N-(1-(3-fluorobenzyl)-1H-pyrazol-4-yl)-5-(prop-1-en-2-yl)isoxazole-3-carboxamide] |
| 30 nM | CC(C)c1cc(C(=O)Nc2cnn(Cc3cccc(F)c3)c2)no1 [Compound 60, N-(1-(3-fluorobenzyl)-1H-pyrazol-4-yl)-5-isopropylisoxazole-3-carboxamide] |
| 190 nM | O=C(Nc1cnn(Cc2cccc(F)c2)c1)c1cc(-c2cncs2)on1 [Compound 69, N-(1-(3-fluorobenzyl)-1H-pyrazol-4-yl)-5-(thiazol-5-yl)isoxazole-3-carboxamide] |
| 66 nM | O=C(Nc1cnn(Cc2cccc(F)c2)c1)c1cc(C2CCCCC2)on1 [Compound 83, 5-cyclohexyl-N-(1-(3-fluorobenzyl)-1H-pyrazol-4-yl)isoxazole-3-carboxamide] |
| 11 nM | O=C(Nc1cnn(Cc2cccc(F)c2)c1)c1cc(C2=CCCCC2)on1 [Compound 85, 5-cyclohexenyl-N-(1-(3-fluorobenzyl)-1H-pyrazol-4-yl)isoxazole-3-carboxamide] |
| 36 nM | O=C(Nc1cnn(Cc2cccc(F)c2)c1)c1cc(N2CCCCC2)on1 [Compound 102, N-(1-(3-fluorobenzyl)-1H-pyrazol-4-yl)-5-(piperidin-1-yl)isoxazole-3-carboxamide] |
| 3900 nM | O=C(Nc1cnn(Cc2cccc(F)c2)c1)c1cc(Cl)on1 [Compound 105, 5-chloro-N-(1-(3-fluorobenzyl)-1H-pyrazol-4-yl)isoxazole-3-carboxamide] |
| 8900 nM | O=C(Nc1cnn(Cc2ccccc2)c1)c1cc(-c2nccs2)on1 [Compound 110, N-(1-benzyl-1H-pyrazol-4-yl)-5-(thiazol-2-yl)isoxazole-3-carboxamide] |
| 9400 nM | O=C(Nc1cnn(Cc2ccccc2F)c1)c1cc(-c2ccccc2)on1 [Compound 111] |
| 26 nM | CC(C)c1cc(C(=O)Nc2cnn(Cc3ccccc3)c2)no1 [Compound 117, N-(1-benzyl-1H-pyrazol-4-yl)-5-isopropylisoxazole-3-carboxamide] |
| 940 nM | COC1(c2cc(C(=O)Nc3cnn(Cc4ccccc4)c3)no2)CCC1 [Compound 120] |
| 210 nM | CC1(c2cc(C(=O)Nc3cnn(Cc4ccccc4)c3)no2)COC1 [Compound 121] |
| 4700 nM | O=C(Nc1cnn(Cc2ccccc2)c1)c1cc(-c2ncccc2F)on1 [Compound 122] |
| 5120 nM | COCc1ncc(-c2cc(C(=O)Nc3cnn(Cc4ccccc4)c3)no2)s1 [Compound 140, N-(1-benzyl-1H-pyrazol-4-yl)-5-(2-(methoxymethyl)thiazol-5-yl)isoxazole-3-carboxamide] |
| 4000 nM | O=C(Nc1cnn(Cc2ccccc2)c1)c1cc(-c2ccncn2)on1 [Compound 148] |
| 10 nM | O=C(Nc1cnn(Cc2ccccc2)c1)c1noc2c1CCCC2 [Compound 156, N-(1-benzyl-1H-pyrazol-4-yl)-4,5,6,7-tetrahydrobenzo[d]isoxazole-3-carboxamide] |
| 58 nM | O=C(Nc1cnn(Cc2ccccc2)c1)c1cc(N2CCCCC2)on1 [Compound 159, N-(1-benzyl-1H-pyrazol-4-yl)-5-(piperidin-1-yl)isoxazole-3-carboxamide] |
| 25000 nM | CC(C)c1cc(C(=O)Nc2cnn(Cc3cnccc3C(F)(F)F)c2)no1 [Compound 161, 5-isopropyl-N-(1-((4-(trifluoromethyl)pyridin-3-yl)methyl)-1H-pyrazol-4-yl)isoxazole-3-carboxamide] |
